# Reference: patent US10736909B2, “Use of trehalose for treatment of neurological diseases” (JUNAXO, INC., priority 2016, dated 2020)
# Read-outs that look alike come from different tables or passages of the source.
# Columns and labels:
# [1] = Extrapolation from animal data to human plasma exposure; conditions: oral, humans, 2.67 g/kg, extrapolated from rat and macaque data, read-out: trehalose plasma Cmax (estimated)
# Method: On a dose per body weight basis, trehalose produced very similar plasma and brain levels in rats and macaques (see FIG. 3 and Tables 6 and 7) when dosed with 2.67 g/kg/day. We also know that a trehalose dose of 2.67 g/kg/day was efficacious in the rat and non-human primate. Therefore, it is contemplated that an efficacious dose for humans includes 2.67 g/kg which is estimated to produce a trehalose plasma Cmax of ˜10000 ng/ml. From the rat data it is also clear that a dose of 0.89 g/kg will be ineffective.
# [2] = Plasma pharmacokinetics in macaques, 1 and 7 days oral administration; assay type: in vivo; conditions: for AUC(0-inf) / Cmax / Tmax / half-life / AUC(0-t): female, monkey, plasma, po, macaque plasma; for AUC(0-t): read-out: AUC0-24h
# Method: Three female macaques (3.81-4.67 kg) received trehalose (2.67 and 5.34 g/kg/day, oral gavage in sterile water) for 7 days. Plasma samples were collected pre-dose and 15 min, 30 min, 1 h, 2 h, 4 h, 6 h, 12 h and 24 h post-dose on days 1 and 7 and analysed for trehalose levels using a validated LC-MS/MS method and plasma exposure time courses (FIG. 2) and pharmacokinetic parameters were calculated (Table 7).
# [3] = Plasma, brain and CSF trehalose levels in macaques after 17 weeks administration; assay type: in vivo, cynomolgus monkeys (Macaca fascicularis); conditions: 2.67 g/kg/day p.o. 17 weeks; for concentration at 1 h: female, cynomolgus monkey, po, 1 h after final administration
# Description: Twenty-five (25), female cynomolgus monkeys (Macaca fascicularis, 8.0-9.3 years of age, 3.2-4.4 kg) were split into 3 groups (n=8-9/group) and received stereotaxic injection of AAV vectors,either a vector expressing mutant A53T human alpha-synculein (AAV1/2-A53T-alpha-synuclein) or an empty vector (AAV1/2-EV), Genedetect, Auckland, New Zealand) into the substantia nigra. The A53T aSyn expressed is of the human sequence the AAV1/2-EV is a control vector of the same serotype and viral construction. Precise stereotaxic coordinates for all surgeries were calculated prior to surgery from individual monkey MRI scans. Injections containing the AAV1/2-A53T-alpha-synuclein or empty vector were made at a speed of 0.5 μl/min and a volume of 7 μl (at a viral titre of 1.7×10^12 active particles per ml) into 4 sites of each hemisphere of the substantia nigra. Commencing on the day of surgery and continuing for 17 weeks, macaques received either vehicle (sterile drinking water) or trehalose (2.67 g/kg/day) administered as a single daily administration (2.67 g/kg/day, p.o). The macaques were then killed and striatal tissue from both hemispheres was collected and analysed for dopamine and dopamine transporter (DAT) levels. Substantia nigra tissue was collected and analysed for the number of TH^+ve cells and the amount of αSYN measured. Plasma, CSF and brain (cerebellum) samples were collected and trehalose levels analysed by LC-MS/MS.
# Single plasma, brain and CSF samples were collected 1 h after the final administration of trehalose. One-hour post-dose corresponds to approximately the Tmax of orally administered trehalose in macaques. The plasma, brain and CSF trehalose levels were 2449±884 ng/ml, 129±35 ng/g and 33±9 ng/ml respectively.
# [4] = system: Chronic MPTP-lesioned mouse; conditions: 1% in the drinking water; Ferguson et al. 2015; cited from earlier work
# [5] = 2.67 g/kg/day, 2.67 g/kg/day p.o., Day 1
# [6] = 2.67 g/kg/day, 2.67 g/kg/day p.o., Day 7
# [7] = 5.34 g/kg/day, 5.34 g/kg/day p.o., Day 1
# [8] = 5.34 g/kg/day, 5.34 g/kg/day p.o., Day 7
smiles,measurement,setting,value
"OC[C@H]1O[C@H](O[C@H]2O[C@H](CO)[C@@H](O)[C@H](O)[C@H]2O)[C@H](O)[C@@H](O)[C@@H]1O [trehalose, (2R,3S,4S,5R,6R)-2-(Hydroxymethyl)-6-[(2R,3R,4S,5S,6R)-3,4,5-trihydroxy-6-(hydroxymethyl)oxan-2-yl]oxyoxane-3,4,5-triol]",Cmax,[1],~10000 ng/mL
same,AUC(0-inf),[2]; [5],27400 ng·h/mL
same,Cmax,[2]; [5],10900 ng/mL
same,Tmax,[2]; [5],49.8 min
same,half-life,[2]; [5],66 min
same,AUC(0-t),[2]; [5],26700 ng·h/mL
same,AUC(0-inf),[2]; [6],27400 ng·h/mL
same,Cmax,[2]; [6],9580 ng/mL
same,Tmax,[2]; [6],40.2 min
same,half-life,[2]; [6],90 min
same,AUC(0-t),[2]; [6],26000 ng·h/mL
same,AUC(0-inf),[2]; [7],80000 ng·h/mL
same,Cmax,[2]; [7],37000 ng/mL
same,Tmax,[2]; [7],40.2 min
same,half-life,[2]; [7],108 min
same,AUC(0-t),[2]; [7],78900 ng·h/mL
same,AUC(0-inf),[2]; [8],57200 ng·h/mL
same,Cmax,[2]; [8],22400 ng/mL
same,Tmax,[2]; [8],49.8 min
same,half-life,[2]; [8],138 min
same,AUC(0-t),[2]; [8],56500 ng·h/mL
same,trehalose in plasma ~8 h post-dose,"[2]; macaques, oral administration, ~8 h post-dose",No trehalose was measurable
same,correlation of trehalose level in the CSF with level in the brain,[3],significantly correlated
same,concentration at 1 h,"[3]; CSF, read-out: CSF trehalose level",33 ± 9 ng/mL
same,concentration at 1 h,"[3]; brain (cerebellum), read-out: brain trehalose level",129 ± 35 ng/g
same,concentration at 1 h,"[3]; plasma, read-out: plasma trehalose level",2450 ± 884 ng/mL
same,Effect (behavioural),[4],No behavioural
same,Effect on dopamine levels,[4],effect. Some
